Literature values, collected in patent US20040235753A1, “Oxytocin agonists” (priority 2001, published 2004).
Read-outs that look alike come from different tables or passages of the source.

Test system: erectile response
Settings: male rats

CC[C@H](C)[C@@H]1NC(=O)[C@H](Cc2ccc(O)cc2)NC(=O)[C@@H](N)CSSC[C@@H](C(=O)N2CCC[C@H]2C(=O)N[C@@H](CC(C)C)C(=O)NCC(N)=O)NC(=O)[C@H](CC(N)=O)NC(=O)[C@H](CCC(N)=O)NC1=O [OT, oxytocin]
erectogenic activity (i.c.v.): erectogenic
erectogenic activity (i.v., doses required up to two orders of magnitude greater than i.c.v.): erectogenic activity
